Assay results taken from patent publication US20060171935A1, “Protecting cell therapy for neurological disorders including Parkinson's disease” (priority 2005, published 2006).
d = 2'-deoxy (DNA); r = 2'-OH (RNA)

Legend:
insulin = experiment: Aggregation suppression of DTT-reduced insulin B chains; type: biochemical; conditions: insulin 26 μM, 20 mM DTT, 25° C.
Description: FIG. 22 illustrates that DJ-1 is a redox-dependent molecular chaperone. (A) Aggregation of CS was monitored at 43° C. after addition of either 0.8 μM CS alone (black), or along with 8.0 μM RNase A (purple), 0.5 μM DJ-1 (aqua), 2.0 μM DJ-1 (blue), 4.0 μM DJ-1 (red), or 2.0 μM Hsp27 (green). (B) Aggregation of 0.8 μM CS after 30 min at […] (unfilled bar) is inhibited by 4.0 μM WT DJ-1 (black bar) but not 4.0 μM L166P mutant DJ-1 (gray bar). Data are shown as the mean±SEM and were analyzed by ANOVA with Fisher's post-hoc test. *p<0.05. (C) Aggregation of insulin (26 μM) B chains induced by 20 mM DTT at 25° C. Insulin alone (black) or in the presence of 4.0 μM RNase A (purple), 0.5 μM DJ-1 (aqua), 2.0 μM DJ-1 (blue), 4.0 μM DJ-1 (red), or 2.0 μM Hsp27 (green). […] (gray bar). Further treatment of DTT-reduced DJ-1 with 10 mM H2O2 for 10 min at 4° C. leads to reactivation of CS suppression (hatched bar). Data are shown as the mean±SEM and were analyzed by ANOVA with Fisher's post-hoc test. *p<0.05.
CS aggregation was performed in 40 mM HEPES (pH 7.8), 20 mM potassium hydroxinde, 50 mM potassium chloride, and 10 mM ammonium sulfate, and monitored in a thermostat-controlled fluorescence spectrophotometer with excitation and emission wavelengths at 500 nm and slit widths at 2.5 nm. Insulin aggregation was performed as described (Giasson et al. 2000). […]

αSyn = αSyn (Homo sapiens, UniProt P37840); experiment: αSyn protofibril formation in vitro; type: biochemical; conditions: molar ratio 1:2 (DJ-1: αSyn), 2 h at 55° C.
Description: αSyn protofibril and fibril formation assays were performed essentially as described (Uversky et al.). Briefly, protofibrils were formed by incubation of 200 μM WT synuclein with 100 μM DJ-1 or control chaperone protein in PBS for 2 h at 55° C. Samples were mixed with SDS loading buffer and analyzed by SDS-PAGE and Western blotting using αSyn LB509 antibody (Zymed). Quantitation of high molecular weight αSyn was performed using NIH Image J. Integrated pixel intensity of high molecular weight synuclein for each sample was normalized to monomeric synuclein intensity. For fibril formation, αSyn and chaperone proteins (as described above) were incubated with shaking for 1 wk at 37° C. Fibril formation was assessed by Congo red (Conway et al. 2000b).

cerebellar granule cells = experiment: Parkin overexpression in kainate-treated cerebellar granule cells; type: cell-based, mice; conditions: 500 μM for 24 h
Description: Cerebellar granule neurons from P6 mice were purified and transfected essentially as described (Scheiffele et al., Neuroligin expressed in nonneuronal cells triggers presynaptic development in contacting axons. Cell, 101:657-69, 2000). Dissociated cortical neurons from E16.5 mice were prepared and cultured as described (Scheiffele et al., Neuroligin expressed in nonneuronal cells triggers presynaptic development in contacting axons. Cell, 101:657-69, 2000). Primary midbrain cultures were prepared from E13.5 mouse embryos, as described (Hynes et al., Induction of midbrain dopaminergic neurons by Sonic hedgehog. Neuron, 15:35-44, 1995). Cells were treated for 24 h with or without kainate (250 or 500 μM as indicated; Sigma) or MPP^+ (1 or 10 μM as indicated; Sigma), stained for 20 min with 0.5 μg/ml Hoechst 33342 (Sigma), and visualized by fluorescence microscopy. For granule cell assays, at least 100 cells in two 20× fields were scored in duplicate for GFP and/or Hoechst signal. […] Cells were washed, incubated for 1 h at room temperature with appropriately-labeled secondary antibodies, and visualized by fluorescence microscopy. For midbrain culture experiments, DAT-specific immunoreactivity (pixels), and cytoplasmic parkin and cyclin E immunoreactivity (mean pixel density), were quantified in triplicate, across nine fields of view, at 20× using Image software (Scion). […]

[1] = tested on: primary cortical cultures; experiment: Parkin siRNA in kainate-treated primary cortical cultures, Western blot; type: cell-based, mice; conditions: 25 nM siRNA
Description: (§1) Cerebellar granule neurons from P6 mice were purified and transfected essentially as described (Scheiffele et al., Neuroligin expressed in nonneuronal cells triggers presynaptic development in contacting axons. Cell, 101:657-69, 2000). Dissociated cortical neurons from E16.5 mice were prepared and cultured as described (Scheiffele et al., Neuroligin expressed in nonneuronal cells triggers presynaptic development in contacting axons. Cell, 101:657-69, 2000). Primary midbrain cultures were prepared from E13.5 mouse embryos, as described (Hynes et al., Induction of midbrain dopaminergic neurons by Sonic hedgehog. Neuron, 15:35-44, 1995). Cells were treated for 24 h with or without kainate (250 or 500 μM as indicated; Sigma) or MPP^+ (1 or 10 μM as indicated; Sigma), stained for 20 min with 0.5 μg/ml Hoechst 33342 (Sigma), and visualized by fluorescence microscopy. For granule cell assays, at least 100 cells in two 20× fields were scored in duplicate for GFP and/or Hoechst signal. For immunohistochemistry, cell cultures were washed twice with PBS, and fixed for 20 min with 4% (w/v) paraformaldehyde. Cells were blocked for 1 h, at room temperature, with 3% (v/v) goat serum in PBS, and then incubated overnight, at 4° C., with specific antibodies, as indicated. Cells were washed, incubated for 1 h at room temperature with appropriately-labeled secondary antibodies, and visualized by fluorescence microscopy. For midbrain culture experiments, DAT-specific immunoreactivity (pixels), and cytoplasmic parkin and cyclin E immunoreactivity (mean pixel density), were quantified in triplicate, across nine fields of view, at 20× using Image software (Scion).
SiRNAs were synthesized by Dharmacon Research, Inc., and duplexes were formed as per the manufacturer's instructions (parkin siRNA sequence: 5′ […] […]dTdT 3′; DAT siRNA sequence: 5′ […]dTdT 3′; SERT siRNA sequence: 5′[…]dTdT 3′). […]

[2] = tested on: primary culture midbrain dopamine neurons; experiment: Parkin siRNA in primary midbrain dopamine neuron cultures; type: cell-based, mice
Description: as §1
SiRNAs were synthesized by Dharmacon Research, Inc., and duplexes were formed as per the manufacturer's instructions (parkin siRNA sequence: 5′ […] […]dTdT 3′; DAT siRNA sequence: 5′ […]dTdT 3′; SERT siRNA sequence: 5′[…]dTdT 3′). Cortical cultures were transfected using Lipofectamine 2000 reagent (Life Technologies); primary midbrain cultures were transfected using Transmessenger (Qiagen), as described (Krichevsky and Kosik, RNAi functions in cultured mammalian neurons. Proc. Natl. Acad. Sci. USA, 99:11926-929, 2002).
Embryonic day 13.5 (E13.5) primary culture midbrain dopamine neurons, identified by immunohistochemical staining for the dopamine transporter (DAT) (Nirenberg et al., The dopamine transporter is localized to dendritic and axonal plasma membranes of nigrostriatal dopaminergic neurons. J. Neurosci., 16:436-47, 1996), were transfected with parkin siRNA (FIG. 7, panels F-J and P-T) or control siRNA (FIG. 7, panels A-E and K-O), and subsequently exposed to kainate, as above.

citrate synthase (CS) = target: T1, citrate synthase (CS) (Sus scrofa, UniProt P00889); experiment: Suppression of heat-induced aggregation of citrate synthase (chaperone assay); type: biochemical; conditions: 0.8 μM CS, 43° C.
T1 construct: purchased Sigma
T1 sequence (P00889 28-464): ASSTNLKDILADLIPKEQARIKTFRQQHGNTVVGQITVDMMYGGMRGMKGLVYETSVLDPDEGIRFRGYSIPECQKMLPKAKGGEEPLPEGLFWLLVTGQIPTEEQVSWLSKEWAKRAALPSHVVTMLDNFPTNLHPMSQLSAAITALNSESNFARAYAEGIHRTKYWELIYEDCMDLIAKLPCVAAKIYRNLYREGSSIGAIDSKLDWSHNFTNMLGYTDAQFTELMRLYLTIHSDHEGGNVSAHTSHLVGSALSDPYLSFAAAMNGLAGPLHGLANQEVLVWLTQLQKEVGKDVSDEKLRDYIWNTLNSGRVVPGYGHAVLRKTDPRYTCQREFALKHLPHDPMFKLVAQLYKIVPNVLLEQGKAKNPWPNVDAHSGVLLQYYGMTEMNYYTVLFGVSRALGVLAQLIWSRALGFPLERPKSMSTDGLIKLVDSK
Description: To test the redox regulation of DJ-1, the inventors assayed chaperone activity in the CS aggregation assay in the presence or absence of the reducing agent DTT. […] (FIG. 22D). […] To further test whether redox regulation might govern DJ-1 chaperone activity, reactivation studies using reduced DJ-1 were performed. DTT-reduced DJ-1 was incubated with H2O2 (10 mM in aggregation buffer for 10 min at 4° C. followed by dialysis against aggregation buffer for 2 h), and subsequently chaperone activity was measured in the CS thermal aggregation assay. […] This was not an indirect effect of residual H2O2 on CS aggregation, as H2O2 treatment of CS increased aggregation (unpublished data).
CS aggregation was performed in 40 mM HEPES (pH 7.8), 20 mM potassium hydroxinde, 50 mM potassium chloride, and 10 mM ammonium sulfate, and monitored in a thermostat-controlled fluorescence spectrophotometer with excitation and emission wavelengths at 500 nm and slit widths at 2.5 nm. Insulin aggregation was performed as described (Giasson et al. 2000). CS, insulin, RNase A, and GST were obtained from Sigma; human Hsp27 was obtained from Stressgen.

DJ-1-deficient ES cells = experiment: Rescue of DJ-1-deficient ES cells from H2O2, MTT viability; type: cell-based, murine; conditions: transient transfection, 10 μM H2O2 for 15 h
Description: (A) DJ-1 cysteine-to-alanine mutants C106A, C53A, and a triple mutant that harbors mutations at all three cysteines in DJ-1 (C106A/C53A/C46A), as well as L166P, were tested for in vitro chaperone activity by CS aggregation suppression assay. (B) Self-association of DJ-1 cysteine mutants. Murine neuroblastoma CAD cells were transiently cotransfected with Flag-tagged human DJ-1 vectors (either WT or mutant) along with WT YFP-tagged human DJ-1. Lysates were immunoprecipitated with anti-Flag antibodies and probed by Western blotting with an antibody specific for human DJ-1. […] Lysates represent 20% of the input for the immunoprecipitate; Flag-DJ-1 migrates at 22 kDa, and YFP-DJ-1 migrates at 50 kDa. (C) DJ-1-deficient ES cells were transiently transfected with vector alone, WT DJ-1, or DJ-1 cysteine mutants, and exposed to 10 μM H2O2 for 15 h followed by MTT assay. The viability of the cells in the absence of drug treatment was not altered by the expression of WT or mutant DJ-1). Data are shown as the mean±SEM and were analyzed by ANOVA with Fisher's post-hoc test. *p<0.05.
To confirm that altered sensitivity to oxidative stress is a consequence of the loss of DJ-1, ‘rescue’ experiments by overexpressing wild-type or mutant human DJ-1 in ‘knockout’ ES cells were performed. Plasmids encoding human wild-type DJ-1, PD-associated L166P mutant DJ-1, or vector alone, were transiently transfected into DJ-1 deficient clones, and these were subsequently assayed for sensitivity to H2O2 using the MTT viability assay.
In Vivo Assays. ES cells plated in 96-well format (2.3×10^4 cells/well) were treated for 15 hours with H2O2 in ES media deficient in β-mercaptoethanol (Abeliovich et al. 2000). Cell viability (as a percent of untreated control) was determined by MTT assay in triplicate (Fezoui et al. 2000). Annexin V/Propidium Iodide (Molecular probes) staining was performed per the manufacturer's instructions. For dihydrorhodamine-123 staining (DHR, Molecular probes) (Walrand et al. 2003), cells were preincubated for 30 min with DHR (5 μM), washed with PBS, then treated with H2O2 in ES media deficient in β-mercaptoethanol for 15 min at 37° C. The FACS analysis was performed using a FACSTAR sorter (Becton Dickinson). Dopamine uptake assay was performed essentially as described (Farrer et al. 1998). Reported values represent specific uptake from which non-specific uptake, determined in the presence of mazindol, was subtracted, and normalized for protein content (BCA kit, Pierce).

## Hsp27: well-described small cytoplasmic chaperone, human Hsp27, from Stressgen; positive control [reference compound]
insulin
  aggregation suppression of reduced insulin: effectively inhibited
αSyn
  formation of soluble αSyn protofibrils: failed to inhibit

## C=C(C)[C@H]1CN[C@H](C(=O)O)[C@H]1CC(=O)O [kainate]
Cerebellar granule cells
  effect of toxin on cyclin E in granule cell cultures: led to the accumulation of cyclin E

## 5′ UUCCAAACCGG AUGAGUGGdTdT 3′ (UUCCAAACCGGAUGAGUGGTT; siRNA; sugars from the 5' end r19 d2, backbone not given here) [parkin siRNA, parkin-specific short interfering RNA synthesized by Dharmacon]
[1]
  cleaved-PARP (apoptosis marker): accumulation of cleaved poly (ADP-ribose) polymerase
  cyclin E accumulation: increased accumulation of cyclin E
  parkin protein expression: significantly reduced parkin expression
[2]; MPP+ 10 μM
  dopamine neuron sensitivity to MPP+: failed to alter dopamine neuron sensitivity
[2]; absence of kainate
  cyclin E or DAT immunoreactivity: failed to alter cyclin E or DAT immunoreactivity
[2]; cyclin E induction and apoptosis
  sensitization of DAT-negative neurons to kainate relative to DAT-positive population: significantly lesser extent
[2]; kainate
  apoptosis of dopamine neurons: increased apoptosis
  cyclin E accumulation in dopamine neurons: increased accumulation of cyclin E
[2]; presence of kainate
  DAT immunoreactivity: decreased DAT immunoreactivity

B1: RNase A: negative control protein, from Sigma (protein, UniProt P61823 27-150, looked up)
Ribonuclease pancreatic: KETAAAKFERQHMDSSTSAASSSNYCNQMMKSRNLTKDRCKPVNTFVHESLADVQAVCSQKNVACKNGQTNCYQSYSTMSITDCRETGSSKYPNCAYKTTQANKHIIVACEGNPYVPVHFDASV
Citrate synthase (CS)
  suppression of heat-induced aggregation of CS (chaperone activity): failed to demonstrate chaperone activity
insulin
  aggregation suppression of reduced insulin: neither DJ-1 nor the negative control protein RNase A displayed chaperone activity

B2: C106A: DJ-1 cysteine-to-alanine mutant at cysteine 106 (protein, UniProt Q99497 1-189, looked up, variant C106A)
chain: MASKRALVILAKGAEEMETVIPVDVMRRAGIKVTVAGLAGKDPVQCSRDVVICPDASLEDAKKEGPYDVVVLPGGNLGAQNLSESAAVKEILKEQENRKGLIAAIAAGPTALLAHEIGFGSKVTTHPLAKDKMMNGGHYTYSENRVEKDGLILTSRGPGTSFEFALAIVEALNGKEVAAQVKAPLVLKD
Citrate synthase (CS)
  suppression of heat-induced aggregation of CS (chaperone activity): does not alter the basal activity
DJ-1-deficient ES cells
  viability of DJ-1 knockout cells in the presence of H2O2: robustly rescued

B3: C106A/C53A/C46A: triple mutant that harbors mutations at all three cysteines in DJ-1 (protein, UniProt Q99497 1-189, looked up, variant C106A C53A C46A)
chain: MASKRALVILAKGAEEMETVIPVDVMRRAGIKVTVAGLAGKDPVQASRDVVIAPDASLEDAKKEGPYDVVVLPGGNLGAQNLSESAAVKEILKEQENRKGLIAAIAAGPTALLAHEIGFGSKVTTHPLAKDKMMNGGHYTYSENRVEKDGLILTSRGPGTSFEFALAIVEALNGKEVAAQVKAPLVLKD
Citrate synthase (CS)
  suppression of heat-induced aggregation of CS (chaperone activity): loss of chaperone function
DJ-1-deficient ES cells
  viability of DJ-1 knockout cells in the presence of H2O2: failed to protect
